Counter-ions that a name gives are not always drawn.
Test system: NRF2 (NQO1 activity as marker for NRF2 activation), BEAS-2B cells
Test: BEAS-2B NQO1 MTT Assay
Type: cell-based
Settings: Homo sapiens, EC50 of NQO1 specific activity induction, 48 hours incubation, read-out: EC50
In short: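 BEAS-2B cells were exposed to compound for 48 h at 37° C, 5% CO2, then lysed. NQO1 activity was measured kinetically by MTT reduction at 570 nm over 30 minutes; EC50 came from 3-parameter fit of Delta OD/min versus log concentration.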

Work on `CC[C@@H]1CN(Cc2cc([C@@H](c3ccc4c(nnn4CC)c3C)C(C)(C)C(N)=O)ccc2C)S(=O)(=O)c2cccnc2O1` [Example 68, (S)-3-(3-(((R)-4-Ethyl-1,1-dioxido-3,4-dihydro-2H-pyrido[2,3-b][1,4,5]oxathiazepin-2-yl)methyl)-4-methylphenyl)-3-(1-ethyl-4-methyl-1H-benzo[d][1,2,3]triazol-5-yl)-2,2-dimethylpropanamide] yielded an EC50 of 0.001 to 0.01 µM.
In the case of `Cc1ccc(C(CC(=O)Nc2cccnc2)c2ccc(C#N)cc2C)cc1CN1CC(C)Cc2ccc(C(F)(F)F)cc2S1(=O)=O` (stereo not drawn) [Example 70, 3-(4-Cyano-2-methylphenyl)-3-(4-methyl-3-((4-methyl-1,1-dioxido-8-(trifluoromethyl)-4,5-dihydrobenzo[f][1,2]thiazepin-2(3H)-yl)methyl)phenyl)-N-(pyridin-3-yl)propanamide], the EC50 is reported as 0.1 to 1 µM.
`CC[C@H]1Cc2ccccc2S(=O)(=O)N(Cc2cc([C@@H](c3ccc4c(nnn4CC)c3C)C(C)(C)C(=O)Nc3ncns3)ccc2C)C1` [Example 71, (S)-3-(3-(((S)-4-Ethyl-1,1-dioxido-4,5-dihydrobenzo[f][1,2]thiazepin-2(3H)-yl)methyl)-4-methylphenyl)-3-(1-ethyl-4-methyl-1H-benzo[d][1,2,3]triazol-5-yl)-2,2-dimethyl-N-(1,2,4-thiadiazol-5-yl)propanamide] showed an EC50 of 0.001 to 0.01 µM.
`CC[C@H]1Cc2ccccc2S(=O)(=O)N(Cc2cc([C@@H](c3ccc4c(nnn4CC)c3C)C(C)(C)C(=O)Nc3nnnn3-c3ccccc3)ccc2C)C1` [Example 72, (S)-3-(3-(((S)-4-Ethyl-1,1-dioxido-4,5-dihydrobenzo[f][1,2]thiazepin-2(3H)-yl)methyl)-4-methylphenyl)-3-(1-ethyl-4-methyl-1H-benzo[d][1,2,3]triazol-5-yl)-2,2-dimethyl-N-(1-phenyl-1H-tetrazol-5-yl)propanamide] was tested, and the EC50 was 0.01 to 0.1 µM.
Compound `CC[C@H]1Cc2ccccc2S(=O)(=O)N(Cc2cc([C@@H](c3ccc4c(nnn4CC)c3C)C(C)(C)C(=O)Nc3nnnn3CC(C)=O)ccc2C)C1` [Example 73, (S)-3-(3-(((S)-4-Ethyl-1,1-dioxido-4,5-dihydrobenzo[f][1,2]thiazepin-2(3H)-yl)methyl)-4-methylphenyl)-3-(1-ethyl-4-methyl-1H-benzo[d][1,2,3]triazol-5-yl)-2,2-dimethyl-N-(1-(2-oxopropyl)-1H-tetrazol-5-yl)propanamide] has an EC50 of 0.01 to 0.1 µM.
`CC[C@H]1Cc2ccccc2S(=O)(=O)N(Cc2cc([C@@H](c3ccc4c(nnn4CC)c3C)C(C)(C)C(=O)Nc3nnnn3-c3ccccn3)ccc2C)C1` [Example 74, (S)-3-(3-(((S)-4-Ethyl-1,1-dioxido-4,5-dihydrobenzo[f][1,2]thiazepin-2(3H)-yl)methyl)-4-methylphenyl)-3-(1-ethyl-4-methyl-1H-benzo[d][1,2,3]triazol-5-yl)-2,2-dimethyl-N-(1-(pyridin-2-yl)-1H-tetrazol-5-yl)propanamide] gave an EC50 of 0.001 to 0.01 µM.
`CC[C@H]1Cc2ccccc2S(=O)(=O)N(Cc2cc([C@@H](c3ccc4c(nnn4CC)c3C)C(C)(C)C(=O)Nc3nnnn3Cc3nccs3)ccc2C)C1` [Example 75, (S)-3-(3-(((S)-4-Ethyl-1,1-dioxido-4,5-dihydrobenzo[f][1,2]thiazepin-2(3H)-yl)methyl)-4-methylphenyl)-3-(1-ethyl-4-methyl-1H-benzo[d][1,2,3]triazol-5-yl)-2,2-dimethyl-N-(1-(thiazol-2-ylmethyl)-1H-tetrazol-5-yl)propanamide] showed an EC50 of 0.001 to 0.01 µM.
`CC[C@H]1Cc2ccccc2S(=O)(=O)N(Cc2cc([C@@H](c3ccc4c(nnn4CC)c3C)C(C)(C)C(=O)Nc3nnnn3CC(=O)O)ccc2C)C1` [Example 76, 2-(5-((S)-3-(3-(((S)-4-Ethyl-1,1-dioxido-4,5-dihydrobenzo[f][1,2]thiazepin-2(3H)-yl)methyl)-4-methylphenyl)-3-(1-ethyl-4-methyl-1H-benzo[d][1,2,3]triazol-5-yl)-2,2-dimethylpropanamido)-1H-tetrazol-1-yl)acetic Acid] gave an EC50 of 0.01 to 0.1 µM.
`CC[C@@H]1CN(Cc2cc([C@@H](c3ccc4c(nnn4CC)c3C)C(C)(C)NC(=O)c3nnn[nH]3)ccc2C)S(=O)(=O)c2ccccc2O1` [Example 77, N—((S)-1-(3-(((R)-4-Ethyl-1,1-dioxido-3,4-dihydro-2H-benzo[b][1,4,5]oxathiazepin-2-yl)methyl)-4-methylphenyl)-1-(1-ethyl-4-methyl-1H-benzo[d][1,2,3]triazol-5-yl)-2-methylpropan-2-yl)-1H-tetrazole-5-carboxamide, Trifluoroacetic Acid Salt] was tested, and the EC50 was 0.1 to 1 µM.
In the case of `CC[C@H]1Cc2ccc(C(F)(F)F)cc2S(=O)(=O)N(Cc2cc([C@@H](c3ccc4c(nnn4CC)c3C)C(C)(C)NC(=O)Cc3nnn[nH]3)ccc2C)C1` [Example 78, N—((S)-1-(3-(((S)-4-Ethyl-1,1-dioxido-8-(trifluoromethyl)-4,5-dihydrobenzo[f][1,2]thiazepin-2(3H)-yl)methyl)-4-methylphenyl)-1-(1-ethyl-4-methyl-1H-benzo[d][1,2,3]triazol-5-yl)-2-methylpropan-2-yl)-2-(1H-tetrazol-5-yl)acetamide], the EC50 is reported as 0.01 to 0.1 µM.
In the case of `CC[C@@H]1CN(Cc2cc([C@@H](c3ccc4c(nnn4C)c3C)C(C)(C)C(=O)NCCNC)ccc2C)Cc2cnccc2O1` [Example 79, (S)-3-(1,4-Dimethyl-1H-benzo[d][1,2,3]triazol-5-yl)-3-(3-(((R)-2-ethyl-2,3-dihydropyrido[3,4-f][1,4]oxazepin-4(5H)-yl)methyl)-4-methylphenyl)-2,2-dimethyl-N-(2-(methylamino)ethyl)propanamide], the EC50 is reported as 0.1 to 1 µM.
With `CC[C@H]1Cc2ccccc2S(=O)(=O)N(Cc2cc([C@H](CC(=O)Nc3cccnc3)c3ccc4c(nnn4CC)c3F)ccc2C)C1` [Example 80, (S)-3-(3-(((S)-4-Ethyl-1,1-dioxido-4,5-dihydrobenzo[f][1,2]thiazepin-2(3H)-yl)methyl)-4-methylphenyl)-3-(1-ethyl-4-fluoro-1H-benzo[d][1,2,3]triazol-5-yl)-N-(pyridin-3-yl)propanamide] the EC50 was 0.01 to 0.1 µM.
With `CC[C@H]1Cc2ccccc2S(=O)(=O)N(Cc2cc([C@H](CC(=O)NCCNC)c3ccc4c(nnn4CC)c3F)ccc2C)C1` [Example 81, (S)-3-(3-(((S)-4-Ethyl-1,1-dioxido-4,5-dihydrobenzo[f][1,2]thiazepin-2(3H)-yl)methyl)-4-methylphenyl)-3-(1-ethyl-4-fluoro-1H-benzo[d][1,2,3]triazol-5-yl)-N-(2-(methylamino)ethyl)propanamide] the EC50 was 0.01 to 0.1 µM.
`CCCn1cc(CC[C@@H](c2ccc(C)c(CN3C[C@@H](CC)Oc4ccccc4S3(=O)=O)c2)C(C)(C)C(=O)Nc2cccnc2)nn1` [Example 82, (S)-3-(3-(((R)-4-Ethyl-1,1-dioxido-3,4-dihydro-2H-benzo[b][1,4,5]oxathiazepin-2-yl)methyl)-4-methylphenyl)-2,2-dimethyl-5-(1-propyl-1H-1,2,3-triazol-4-yl)-N-(pyridin-3-yl)pentanamide] was tested, and the EC50 was 0.1 to 1 µM.
`CCCn1cc(CC[C@H](c2ccc(C)c(CN3C[C@@H](CC)Oc4ccccc4S3(=O)=O)c2)C(C)(C)C(=O)Nc2cccnc2)nn1` [Example 83, (R)-3-(3-(((R)-4-Ethyl-1,1-dioxido-3,4-dihydro-2H-benzo[b][1,4,5]oxathiazepin-2-yl)methyl)-4-methylphenyl)-2,2-dimethyl-5-(1-propyl-1H-1,2,3-triazol-4-yl)-N-(pyridin-3-yl)pentanamide] showed an EC50 of 0.1 to 1 µM.

Source: US11078216B2, “Bisaryl amides as NRF2 activators” (GLAXOSMITHKLINE INTELLECTUAL PROPERTY DEVELOPMENT LIMITED, priority 2016, dated 2021)
